# Values of other authors, collected in patent US12364655B2, “Semisolid oral dispersions comprising active agents” (The Procter & Gamble Company, priority 2019, dated 2025).
# Where two headings read alike, the source gives them in different places.
# Conditions: from supplier Safety Data Sheet, supplier Product Data Sheet (estimated) or Wikipedia
smiles,measurement,setting,value
"NC(N)=O.OO [Urea Peroxide, Urea Hydrogen Peroxide Adduct]",Solubility in Water (number of parts by weight per 100 parts by weight of water),,80 parts by weight per 100 parts by weight of water
same,Solubility in Water (number of parts by weight per 100 parts by weight of water),listed as urea peroxide,80 parts by weight per 100 parts
